The test system of one data set is TRPV6 in DU145 cells. The data set is described as follows: TRPV6 expression, semi-quantitative RT-PCR. It is filed as cell-based. To be noted: 20 nM.
In the next data set the test system is CYP24A1. The data set is described as follows: CYP24A1 expression levels. It is filed as cell-based. The settings on record: compound in presence and absence of 1,25-(OH)2D3.
Another data set relates to HEK293T cells. The data set is described as follows: Toxicity by Cell-Titer Glo after the FRET assay. The class given is cell-based. The settings on record: for Toxicity (%): Conc. 62.5 μM.
For data set [1] the following is noted: PAMPA. In general terms: The PAMPA barrier holds no transporters, so it reflects passive diffusion.
For data set [2] the following is noted: 12 h, pH 7.4.
The subject of another data set is ECC-1. The data set is described as follows: Cytotoxicity, MTS assay. The settings on record: ECC-1 endometrial cancer cell-line, within 48 hours. It is filed as cell-based.
Another data set relates to OVCAR-8. The data set is described as follows: Cytotoxicity, MTS assay. The class given is cell-based. The settings on record: OVCAR-8, within 48 hours. In general terms: Formazan colour is commonly taken as a measure of viable cells.
The test system of a further data set is SKOV-3. The data set is described as follows: Cytotoxicity, MTS assay. It is filed as cell-based. To be noted: SKOV-3, within 48 hours.
A further data set deals with SKOV-3 cells. The data set is described as follows: Western blots for phospho-p38 MAPkinase and phospho SAPK/JNK. The class given is cell-based. The settings on record: SKOV-3, 25 uM, within 24 hours. An excerpt:
Vitamin-d/VDR signaling protects the cancer cells from reactive oxygen species (ROS) induced cellular damages.
For orientation: In western blotting, separated proteins are transferred to a membrane and probed.

In the next data set the test system is VDR in SKOV-3 cells. The data set is described as follows: VDR expression, western blotting of whole cell lysate. It is filed as cell-based. To be noted: SKOV-3, 24 hours; 31b 25 and 50 uM, 32b 50 uM. How it is done: Expression of VDR was analyzed by western blotting of whole cell lysate using monoclonal antibody against VDR (Neomarker, Calif. cat no-RT-200PO).

The record followed here is patent US10093653B2, “Vitamin D receptor-coregulator inhibitors” (UWM Research Foundation, Inc., priority 2011, dated 2018).

In brackets after ≈: the same amount, converted by molar mass.
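Throughout, for Permeability Log(Pe): passive permeability measured by parallel artificial membrane permeability assay, each experiment run in triplicate.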
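Throughout, for Permeability values (log Pe) of standards: passive permeability measured by parallel artificial membrane permeability assay, each experiment run in triplicate.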

`C=C1/C(=C\C=C2/CCC[C@]3(C)[C@@H]([C@H](C)CCCC(C)(C)O)CC[C@@H]23)C[C@@H](O)C[C@@H]1O` [1,25-(OH)2D3, 1,25-dihydroxyvitamin D3, reference compound]: the “TRPV6 expression with VDR ligand” value in the data set with TRPV6 in DU145 cells is listed as “up-regulated”.

For `c1ccc(NC(c2ccccc2)c2c[nH]c3ccccc23)cc1` (stereo not drawn) [Compound 1, N-((1H-indol-3-yl)(phenyl)methyl)aniline], in the data set with CYP24A1, the “Modulation of CYP24A1 expression” value was “no modulation of CYP24A1”.

`COc1ccc(C(Nc2ccccn2)c2c(C)[nH]c3ccccc23)cc1` (stereo not drawn) [Compound 11]: the “Toxicity (%)” value in the data set on HEK293T cells stood at 100%. In addition, in [1], the “Permeability Log(Pe)” value is on record as −6.25 cm/s.

As to `Cc1ccc(C(Nc2ccccn2)c2c(C)[nH]c3ccccc23)cc1` (stereo not drawn) [Compound 12], in the data set on HEK293T cells, the “Toxicity (%)” value is on record as 90%. In [1], the “Permeability Log(Pe)” value is on record as −6.10 cm/s.

Consider `COc1cccc(C(Nc2ccccn2)c2c(C)[nH]c3ccccc23)c1` (stereo not drawn) [Compound 13], for which the “Toxicity (%)” value with HEK293T cells amounted to 60%. The “Permeability Log(Pe)” value in [1] is −6.12 cm/s.

On to `Cc1[nH]c2ccccc2c1C(Nc1ccccn1)c1cccc(Br)c1` (stereo not drawn) [Compound 14], for which, in the data set with HEK293T cells, the “Toxicity (%)” value came out at 100%. Also, the “Permeability Log(Pe)” value in data set [1] is −6.11 cm/s.

In the case of `Cc1[nH]c2ccccc2c1C(Nc1ccccn1)c1ccc(Br)cc1` (stereo not drawn) [Compound 15], the “Permeability Log(Pe)” value in data set [1] was −6.01 cm/s.

Regarding `Cc1[nH]c2ccccc2c1C(Nc1ccccn1)c1ccc(F)cc1` (stereo not drawn) [Compound 16], the “Toxicity (%)” value with HEK293T cells stood at 100%. The “Permeability Log(Pe)” value in [1] is −6.05 cm/s.

As to `Cc1[nH]c2ccccc2c1C(Nc1ccccn1)c1ccc(C(C)C)cc1` (stereo not drawn) [Compound 17], the “Toxicity LD50 (given instead of percentages)” value with HEK293T cells (footnote b, highly active compounds) is 18.0^b μM. Moreover, in [1], the “Permeability Log(Pe)” value is recorded as −6.12 cm/s.

On to `Cc1[nH]c2ccccc2c1C(Nc1ccccn1)c1cccc(Cl)c1` (stereo not drawn) [Compound 18], for which the “Toxicity (%)” value in the data set with HEK293T cells is 100%. Further, the “Permeability Log(Pe)” value in [1] is recorded as −6.01 cm/s.

For `Cc1[nH]c2ccccc2c1C(Nc1ccccn1)c1cccc(F)c1` (stereo not drawn) [Compound 19], the “Permeability Log(Pe)” value in data set [1] is given as −5.99 cm/s.

The term Solubility denotes the concentration that dissolves in the medium under given conditions. Regarding `Cc1[nH]c2ccccc2c1C(Nc1ccccc1)c1ccccc1` (stereo not drawn) [Compound 30a, N-((2-methyl-1H-indol-3-yl)(phenyl)methyl)aniline], the Solubility in [2] worked out at 252.9 µM (≈ 79 µg/mL). Further, in data set [1], the “Permeability Log(Pe)” value was −6.00 cm/s.

`Cc1[nH]c2ccccc2c1C(Nc1ccccc1)c1ccc(Cl)cc1` (stereo not drawn) [Compound 30b, N-((4-chlorophenyl)(2-methyl-1H-indol-3-yl)methyl)aniline]: the Solubility in data set [2] came to 93.9 µM (≈ 32.6 µg/mL). In data set [1], the “Permeability Log(Pe)” value was −6.03 cm/s.

As for `COc1ccc(C(Nc2ccccc2)c2c(C)[nH]c3ccccc23)cc1` (stereo not drawn) [Compound 30c, N-((4-methoxyphenyl)(2-methyl-1H-indol-3-yl)methyl)aniline], in data set [2], the Solubility came to 237.5 µM (≈ 81.3 µg/mL). In data set [1], the “Permeability Log(Pe)” value is given as −6.10 cm/s.

For the compound `Cc1ccc(C(Nc2ccccc2)c2c(C)[nH]c3ccccc23)cc1` (stereo not drawn) [Compound 30d, N-((2-methyl-1H-indol-3-yl)(p-tolyl)methyl)aniline], in data set [2], the Solubility came out at 175.1 µM (≈ 57.2 µg/mL). Besides, the “Permeability Log(Pe)” value in data set [1] is recorded as −6.34 cm/s.

`Cc1[nH]c2ccccc2c1C(Nc1ccccc1)c1ccc(N(C)C)cc1` (stereo not drawn) [Compound 30e, N,N-dimethyl-4-((2-methyl-1H-indol-3-yl)(phenylamino)methyl)aniline]: the Solubility in data set [2] is 157.7 µM (≈ 56.1 µg/mL). In addition, in data set [1], the “Permeability Log(Pe)” value is on record as −6.88 cm/s.

In turn, `Cc1[nH]c2ccccc2c1C(Nc1ccccc1)c1ccc([N+](=O)[O-])cc1` (stereo not drawn) [Compound 30f, N-((2-methyl-1H-indol-3-yl)(4-nitrophenyl)methyl)aniline] gave a Solubility in [2] of 117.6 µM (≈ 42 µg/mL). The “Permeability Log(Pe)” value in data set [1] is on record as −6.08 cm/s.

In [2], `Cc1[nH]c2ccccc2c1C(C)Nc1ccccc1` (stereo not drawn) [Compound 30g, N-(1-(2-methyl-1H-indol-3-yl)ethyl)aniline] returned a Solubility of 189.0 µM (≈ 47.3 µg/mL). Also, in data set [1], the “Permeability Log(Pe)” value is −6.40 cm/s.

Regarding `Cc1[nH]c2ccccc2c1C(Nc1ccccc1)c1ccc2ccccc2c1` (stereo not drawn) [Compound 30h, N-((2-methyl-1H-indol-3-yl)(naphthalen-2-yl)methyl)aniline], the Solubility in data set [2] stood at 67.3 µM (≈ 24.4 µg/mL). Further, the “Permeability Log(Pe)” value in data set [1] is given as −6.30 cm/s.

In data set [2], `Cc1[nH]c2ccccc2c1C(Nc1ccccc1)c1ccccc1Cl` (stereo not drawn) [Compound 31a, N-((2-chlorophenyl)(2-methyl-1H-indol-3-yl)methyl)aniline] registered a Solubility of 31.6 µM (≈ 11 µg/mL). In data set [1], the “Permeability Log(Pe)” value is −6.41 cm/s.

For `COc1ccc(NC(c2ccccc2Cl)c2c(C)[nH]c3ccccc23)cc1` (stereo not drawn) [Compound 31c, N-((2-chlorophenyl)(2-methyl-1H-indol-3-yl)methyl)-4-methoxyaniline], in data set [2], the Solubility is 84.2 µM (≈ 31.7 µg/mL). In data set [1], the “Permeability Log(Pe)” value is given as −6.30 cm/s.

`Cc1ccc(NC(c2ccccc2Cl)c2c(C)[nH]c3ccccc23)cc1` (stereo not drawn) [Compound 31d, N-((2-chlorophenyl)(2-methyl-1H-indol-3-yl)methyl)-4-methylaniline] showed a Solubility in data set [2] of 35.9 µM (≈ 13 µg/mL). Besides, the “Permeability Log(Pe)” value in [1] was −6.45 cm/s.

As to `Cc1[nH]c2ccccc2c1C(Nc1ccc(N(C)C)cc1)c1ccccc1Cl` (stereo not drawn) [Compound 31e, N^1-((2-chlorophenyl)(2-methyl-1H-indol-3-yl)methyl)-N^4,N^4-dimethylbenzene-1,4-diamine], the Solubility in data set [2] is 21.0 µM (≈ 8.19 µg/mL). For the same compound, the “Permeability Log(Pe)” value in data set [1] is −7.28 cm/s.

In turn, `Cc1[nH]c2ccccc2c1C(Nc1ccc([N+](=O)[O-])cc1)c1ccccc1Cl` (stereo not drawn) [Compound 31f, N-((2-chlorophenyl)(2-methyl-1H-indol-3-yl)methyl)-4-nitroaniline] displayed a Solubility in data set [2] of 4.9 µM (≈ 1.92 µg/mL). The “Permeability Log(Pe)” value in data set [1] is given as −7.60 cm/s.

Take `COc1ccccc1NC(c1ccccc1Cl)c1c(C)[nH]c2ccccc12` (stereo not drawn) [Compound 31h, N-((2-chlorophenyl)(2-methyl-1H-indol-3-yl)methyl)-2-methoxyaniline]: the Solubility in data set [2] amounted to 59.7 µM (≈ 22.5 µg/mL). The “Permeability Log(Pe)” value in data set [1] was −6.22 cm/s.

Turning to `Cn1cc(C(Nc2ccccc2)c2ccccc2Cl)c2ccccc21` (stereo not drawn) [Compound 32a, N-((2-chlorophenyl)(1-methyl-1H-indol-3-yl)methyl)aniline], in [2], the Solubility was found to be 15.3 µM (≈ 5.31 µg/mL). Also, the “Permeability Log(Pe)” value in [1] is on record as −6.58 cm/s.

As for `Clc1ccccc1C(Nc1ccccc1)c1c[nH]c2ccccc12` (stereo not drawn) [Compound 32b, N-((2-chlorophenyl)(1H-indol-3-yl)methyl)aniline], the “Cytotoxicity, cell viability” value in the data set on ECC-1, with OVCAR-8 and with SKOV-3 was “did not show any cytotoxicity” each time. Moreover, the Solubility in data set [2] was found to be 52.3 µM (≈ 17.4 µg/mL). For the same compound, the “Activation of SAPK/JNK” value in the data set on SKOV-3 cells is listed as “did not cause the similar activation”. Further, the “Activation of p38 MAPkinase” value in the data set with SKOV-3 cells is “did not cause the similar activation”. Also, in the data set with VDR in SKOV-3 cells, the “Expression of VDR” value was “downregulation of VDR”. In data set [1], the “Permeability Log(Pe)” value was −6.51 cm/s.

Take `Cc1[nH]c2ccccc2c1C(Sc1ccccc1)c1ccccc1Cl` (stereo not drawn) [Compound 32c, 3-((2-chlorophenyl)(phenylthio)methyl)-2-methyl-1H-indole]: the Solubility in data set [2] was determined as 11.8 µM (≈ 4.29 µg/mL). Also, the “Permeability Log(Pe)” value in data set [1] is listed as −6.89 cm/s.

Consider `CNC(=C[N+](=O)[O-])NCCSCc1ccc(CN(C)C)o1` [Ranitidine, reference compound], for which the “Permeability values (log Pe) of standards” value in data set [1] was −8.02±0.074 cm/s.

Take `NC(=O)N1c2ccccc2C=Cc2ccccc21` [carbamazepine, reference compound]: the “Permeability values (log Pe) of standards” value in [1] is −6.81±0.0011 cm/s.
